Experiments:
[1] = Drug concentration in blood of NOD-SCID 1L2Rgamma mouse infected with Plasmodium falciparum 3D70087/N9 at 50 mg/kg, po measured after 6 hrs by LC-MS/MS analysis; format: ADME, organism-based; settings: read-out: Drug uptake
Plasmodium = assay: Antimalarial activity against Plasmodium assessed as transmission blocking potential by measuring reduction in male gamete formation by dual gamete formation assay; format: functional, organism-based
[2] = Drug metabolism in rat hepatocytes assessed as 3'-propoxy-5,5'-bi(1,2,4-triazin)-3-ol formation by LC-MS/MS(CID) analysis; format: ADME, cell-based, Hepatocyte
[3] = Apparent half life in Swiss mouse at 2.7 mg/kg, iv measured up to 24 hrs by LC-MS analysis; format: ADME, organism-based; settings: in vivo, read-out: t1/2(app) (converted)
[4] = Apparent oral availability in Sprague-Dawley rat at 10 mg/kg measured up to 24 hrs by LC-MS analysis; format: ADME, organism-based; settings: in vivo, read-out: Fapp
[5] = Drug metabolism in human liver microsomes assessed as formation of cleavage product M-69 by LC-MS/MS(CID) analysis; format: ADME, Microsome
[6] = Drug metabolism in Sprague-Dawley rat feces assessed as M-32 metabolite formation at 10 mg/kg, po by high-resolution mass spectrometry; format: ADME, organism-based; settings: in vivo
[7] = Half life in mouse liver microsomes in presence of NADPH by UPLC-MS analysis; format: ADME, Microsome
[8] = Oral bioavailability in Swiss mouse at 2.8 mg/kg measured up to 24 hrs; format: ADME, organism-based; settings: in vivo
[9] = Metabolic stability of compound in Swiss mouse blood assessed as parent compound loss measured over 4 hrs by LC-MS analysis; format: ADME, tissue-based; settings: whole blood, read-out: Drug degradation
[10] = Drug metabolism in Sprague-Dawley rat feces assessed as M-32 metabolite formation at 3 mg/kg, iv by high-resolution mass spectrometry; format: ADME, organism-based; settings: in vivo
[11] = Kinetic solubility of compound at pH 6.5 by nephelometry; format: physicochemical; settings: buffer, read-out: Kinetic_solubility
[12] = Tmax in Swiss mouse at 27 mg/kg, po measured up to 24 hrs by LC-MS analysis; format: ADME, organism-based; settings: in vivo
[13] = Drug metabolism in human liver microsomes assessed as N-methyl-2-(3'-propoxy-5,5'-bi(1,2,4-triazin)-3-yloxy)ethanamine formation by LC-MS/MS(CID) analysis; format: ADME, Microsome
Cytochrome P450 3A4 = Cytochrome P450 3A4 (Homo sapiens, UniProt P08684); assay: Inhibition of CYP3A4 in human liver microsomes assessed as reduction in midazolam 1-hydroxylase activity by . high-pressure liquid chromatography-tandem mass spectrometry; format: ADME
[14] = Drug metabolism in rat hepatocytes assessed as glucuronides/sulfates metabolite formation by LC-MS/MS(CID) analysis; format: ADME, cell-based, Hepatocyte
[15] = Drug metabolism in Sprague-Dawley rat urine assessed as N-methyl-2-(3'-propoxy-5,5'-bi(1,2,4-triazin)-3-yloxy)ethanamine formation at 10 mg/kg, po by high-resolution mass spectrometry; format: ADME, organism-based; settings: in vivo
[16] = Intrinsic clearance in mouse hepatocytes assessed per million cells by UPLC-MS analysis; format: ADME, cell-based, Hepatocyte; settings: read-out: CLH
[17] = Tmax in Sprague-Dawley rat plasma at 10 mg/kg, po administered via gavage measured up to 24 hrs by LC-MS analysis; format: ADME, organism-based
[18] = Selectivity ratio of CC50 for HEK293 cells to IC50 for Plasmodium falciparum 3D7; format: toxicity; settings: human, read-out: Ratio CC50/IC50
Cytochrome P450 2C9 = Cytochrome P450 2C9 (Homo sapiens, UniProt P11712); assay: Inhibition of CYP2C9 in human liver microsomes assessed as reduction in […] activity by . high-pressure liquid chromatography-tandem mass spectrometry; format: ADME
[19] = Apparent permeability across basolateral side to apical side in human Caco2 cells measured over 120 mins by LC-MS analysis; format: ADME, cell-based; settings: Caco-2
[20] = Drug metabolism in human hepatocytes assessed as oxygenated metabolite M+16(1) formation by LC-MS/MS(CID) analysis; format: ADME, cell-based, Hepatocyte
[21] = Drug metabolism in human liver microsomes assessed as formation of cleavage product M-69 in presence of NADPH by LC-MS/MS(CID) analysis; format: ADME, Microsome
[22] = Drug excretion in Sprague-Dawley rat urine 3 mg/kg, iv measured up to 24 hrs by LC-MS analysis; format: ADME, organism-based; settings: read-out: Drug excretion
[23] = Drug metabolism in rat hepatocytes assessed as oxygenated metabolite M+16(2) formation by LC-MS/MS(CID) analysis; format: ADME, cell-based, Hepatocyte
[24] = Drug metabolism in mouse liver microsomes assessed as 3'-propoxy-5,5'-bi(1,2,4-triazin)-3-ol formation by LC-MS/MS(CID) analysis; format: ADME, Microsome
[25] = Protein binding in rat plasma measured after 6 hrs by LC-MS analysis based equilibrium dialysis method; format: ADME, cell-free; settings: read-out: PPB (converted)
[26] = AUC (0 to infinity) in Swiss mouse plasma at 27 mg/kg, po measured up to 24 hrs by LC-MS analysis
[27] = Drug metabolism in mouse liver microsomes assessed as formation of cleavage product M-69 in presence of NADPH by LC-MS/MS(CID) analysis; format: ADME, Microsome
[28] = Drug metabolism in Sprague-Dawley rat feces assessed as oxygenated metabolite N-methyl-2-(3'-propoxy-5,5'-bi(1,2,4-triazin)-3-yloxy)ethanamine oxide formation at 10 mg/kg, po by high-resolution mass spectrometry; format: ADME, organism-based; settings: in vivo
[29] = Drug metabolism in mouse liver microsomes assessed as N-methyl-2-(3'-propoxy-5,5'-bi(1,2,4-triazin)-3-yloxy)ethanamine formation by LC-MS/MS(CID) analysis; format: ADME, Microsome
[30] = Drug metabolism in Sprague-Dawley rat feces assessed as oxygenated metabolite M+16(1) formation at 3 mg/kg, iv by high-resolution mass spectrometry; format: ADME, organism-based; settings: in vivo
[31] = Drug metabolism in rat liver microsomes assessed as formation of cleavage product M-69 by LC-MS/MS(CID) analysis; format: ADME, Microsome
[32] = Drug metabolism in Sprague-Dawley rat urine assessed as M-32 metabolite formation at 3 mg/kg, iv by high-resolution mass spectrometry; format: ADME, organism-based; settings: in vivo
Cytochrome P450 2C19 = Cytochrome P450 2C19 (Homo sapiens, UniProt P33261); assay: Inhibition of CYP2C19 in human liver microsomes assessed as reduction in […] activity by . high-pressure liquid chromatography-tandem mass spectrometry; format: ADME
[33] = Drug metabolism in human liver microsomes assessed as oxygenated metabolite M+16(1) formation by LC-MS/MS(CID) analysis; format: ADME, Microsome
[34] = Drug metabolism in Sprague-Dawley rat urine assessed as oxygenated metabolite M+16(2) formation at 3 mg/kg, iv by high-resolution mass spectrometry; format: ADME, organism-based; settings: in vivo
[35] = Apparent half life in Sprague-Dawley rat at 3 mg/kg administered as iv infusion for 10 mins measured up to 24 hrs by LC-MS analysis; format: ADME, organism-based; settings: in vivo
[36] = Drug metabolism in mouse hepatocytes assessed as glucuronides/sulfates metabolite formation by LC-MS/MS(CID) analysis; format: ADME, cell-based, Hepatocyte
[37] = Drug metabolism in mouse hepatocytes assessed as 3'-propoxy-5,5'-bi(1,2,4-triazin)-3-ol formation by LC-MS/MS(CID) analysis; format: ADME, cell-based, Hepatocyte
[38] = Drug metabolism in Sprague-Dawley rat urine assessed as oxygenated metabolite M+16(2) formation at 10 mg/kg, po by high-resolution mass spectrometry; format: ADME, organism-based; settings: in vivo

Sequence of Cytochrome P450 2C9 (P11712 whole entry): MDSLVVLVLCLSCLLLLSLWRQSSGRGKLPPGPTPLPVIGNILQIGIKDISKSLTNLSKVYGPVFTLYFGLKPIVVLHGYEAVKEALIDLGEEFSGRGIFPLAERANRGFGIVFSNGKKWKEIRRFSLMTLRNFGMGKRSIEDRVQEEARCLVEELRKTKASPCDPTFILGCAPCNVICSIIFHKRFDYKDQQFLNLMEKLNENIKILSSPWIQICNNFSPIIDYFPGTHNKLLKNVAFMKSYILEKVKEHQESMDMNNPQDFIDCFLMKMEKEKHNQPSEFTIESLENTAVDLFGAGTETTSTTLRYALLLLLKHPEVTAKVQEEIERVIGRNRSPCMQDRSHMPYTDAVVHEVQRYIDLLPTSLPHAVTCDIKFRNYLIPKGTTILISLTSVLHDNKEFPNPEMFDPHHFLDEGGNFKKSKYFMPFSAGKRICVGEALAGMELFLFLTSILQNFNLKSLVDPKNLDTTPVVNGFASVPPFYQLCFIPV
Sequence of Cytochrome P450 2C19 (P33261 whole entry): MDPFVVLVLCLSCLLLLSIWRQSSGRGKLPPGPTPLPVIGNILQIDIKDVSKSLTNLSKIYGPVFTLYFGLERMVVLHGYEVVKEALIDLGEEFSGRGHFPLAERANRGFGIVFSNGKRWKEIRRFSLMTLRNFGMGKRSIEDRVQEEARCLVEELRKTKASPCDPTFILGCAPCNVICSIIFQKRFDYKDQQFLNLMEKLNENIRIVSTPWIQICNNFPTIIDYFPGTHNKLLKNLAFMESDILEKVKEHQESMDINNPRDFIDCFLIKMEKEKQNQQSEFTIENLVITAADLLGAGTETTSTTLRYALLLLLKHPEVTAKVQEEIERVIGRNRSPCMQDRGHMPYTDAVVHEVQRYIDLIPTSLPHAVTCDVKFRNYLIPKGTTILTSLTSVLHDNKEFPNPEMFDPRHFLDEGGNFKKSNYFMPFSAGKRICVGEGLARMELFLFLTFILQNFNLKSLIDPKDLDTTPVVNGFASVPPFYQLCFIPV
Sequence of Cytochrome P450 3A4 (P08684 whole entry): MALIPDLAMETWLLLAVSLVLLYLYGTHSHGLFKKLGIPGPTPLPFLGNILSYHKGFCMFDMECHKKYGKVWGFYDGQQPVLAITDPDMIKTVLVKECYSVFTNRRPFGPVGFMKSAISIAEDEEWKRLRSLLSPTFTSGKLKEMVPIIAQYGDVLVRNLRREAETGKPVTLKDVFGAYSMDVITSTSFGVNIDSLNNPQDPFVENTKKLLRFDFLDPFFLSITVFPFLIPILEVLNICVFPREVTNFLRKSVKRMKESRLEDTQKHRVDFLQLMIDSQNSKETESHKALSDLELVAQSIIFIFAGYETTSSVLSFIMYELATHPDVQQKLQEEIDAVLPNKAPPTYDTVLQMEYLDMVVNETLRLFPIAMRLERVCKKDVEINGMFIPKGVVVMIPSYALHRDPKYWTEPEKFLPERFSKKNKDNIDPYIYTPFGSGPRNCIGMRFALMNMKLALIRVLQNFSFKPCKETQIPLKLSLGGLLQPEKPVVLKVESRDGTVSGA

concentration at 6 h [1]: 150 ng/mL
EC50 (Plasmodium): 1.2 µM
Drug metabolism [2]: Metabolite_Detected
half-life [3]: 12 min
bioavailability [4]: 5%
Drug metabolism [5]: Metabolite_Detected
Drug metabolism [6]: Metabolite_Detected
half-life [7]: 42 min
bioavailability [8]: 10%
metabolised at 4 h [9]: 23%
Drug metabolism [10]: Metabolite_Detected
solubility kinetic [11]: > 100 µg/mL
Tmax [12]: 60 min
Drug metabolism [13]: Metabolite_Notdetected
IC50 (Cytochrome P450 3A4): > 20 µM
Drug metabolism [14]: Metabolite_Notdetected
Drug metabolism [15]: Metabolite_Detected
hepatocyte CLint [16]: 3.7 µL/min/1e6 cells
Tmax [17]: 78 min
IC50 (Cytochrome P450 2C9): > 20 µM
Papp B→A at 2 h [19]: 46 ×10⁻⁶ cm/s
Drug metabolism [20]: Metabolite_Detected
Drug metabolism [21]: Metabolite_Detected
dose excreted at 24 h [22]: < 3%
Drug metabolism [23]: Metabolite_Detected
Drug metabolism [24]: Metabolite_Detected
fraction unbound at 6 h [25]: 0.78
AUC(0-inf) [26]: 0.44 µM·h
Drug metabolism [27]: Metabolite_Detected
Drug metabolism [28]: Metabolite_Detected
Drug metabolism [29]: Metabolite_Detected
Drug metabolism [30]: Metabolite_Detected
Drug metabolism [31]: Metabolite_Detected
Drug metabolism [32]: Metabolite_Detected
IC50 (Cytochrome P450 2C19): > 20 µM
Drug metabolism [33]: Metabolite_Detected
Drug metabolism [34]: Metabolite_Detected
half-life [35]: 23.4 min
Drug metabolism [36]: Metabolite_Notdetected
Drug metabolism [37]: Metabolite_Detected
Drug metabolism [38]: Metabolite_Detected
Structure (SMILES): CCCOc1nncc(-c2cnnc(OCCN(C)C)n2)n1
selectivity ratio [18]: > 1000

Reference: ChEMBL document CHEMBL4808169, “Discovery of Potent and Fast-Acting Antimalarial Bis-1,2,4-triazines” (J Med Chem, 2021)
